This note sets out measurements from patent US9234025B2, “Extracellular allosteric inhibitor binding domain from a tyrosine kinase receptor” (SANOFI, priority 2009, dated 2016).

One test concerns the target T1, FGFR4 (Homo sapiens, UniProt P22455).
T1 construct: expressed in transfected cells; host or cells: murine pre-B 300-19 cells
In words: AlexaFluor488-FGF2 binding on FGFR4-transfected 300-19 cells (flow cytometry). The settings on record: SSR 300 nM; FGF2 10 ng/ml; murine pre-B 300-19 cells. On the procedure:
FGF2 was labeled with Alexa Fluor 488 C5-maleimide (Invitrogen, A10254) following purchaser recommendations.
This AF488-FGF2 was used at 10 ng/ml in binding experiments on murine pre-B 300-19 cells transfected with FGFR1 or FGFR4 constructs in pEF6-V5/His Topo plasmids (Invitrogen). SSR (300 nM final) was pre-incubating 20 min with cells in RPMI 1640 (Invitrogen, 32404-014) with 10% FCS (Hyclone, SH30070.03), 2 mM glutamine, MEM non-essential amino-acid 1× (Gibco, 11140-035), MEM sodium pyruvate 1× (Gibco, 11360-039) and […] monothioglycerol (Sigma, M6145) at 4° C. under 150 rpm agitation. Then, FGF2 (10 ng/ml final) is added for 30 min and binding is measured using a FACS Calibur flow cytometer (Beckton Dickinson). Fluorescence median for each condition is also analysed.

For the next test, the system named is B9-FGFR3WT cell line. As to the kind of experiment: B9 myeloma cell proliferation, FGFR3WT. The test is classed as cell-based. The settings on record: 0.1 μM SSR; FGF1 25 ng/ml. On the procedure: (§1) Cell proliferation was analysed on exponentially growing cells that were starved for 16 hours in IMDM (Invitrogen, 31980048), 0.2% FBS, 2 mM glutamine containing medium and seeded at 4,000 cells/well in 96-well microplates. After exposure to mitogens and/or SSR for 72 hours, cell proliferation was assessed with the use of the CellTiter 96 AQueous One Solution Cell Proliferation Assay (Promega, Madison, Wis., USA) according to manufacturer's instructions.
(§2) For studying SSR effect on FGFR3, the proliferation of B9-myeloma cells, expressing either FGFR3WT or FGFR3TD (a constitutively activated FGFR3 variant induced by the K650E mutation, even in the absence of any ligand; Truedel et al; blood 2006), was assayed by stimulation with FGF1 (25 ng/ml).

The target of a further test is FGF2 (Homo sapiens, UniProt P09038). As to the kind of experiment: ITC or STD-NMR, FGF2. The test is classed as binding. Further details: FGF2 (amino acids 9-155); made in house. As for the experimental part: The extracellular domain (ECD; amino acids: 39-358) of the human FGFR1 gene (P11362) was PCR amplified and cloned into E. coli vector pETTEV (with a N-terminal His-tag followed by a TEV protease cleavage site), using NdeI and BamHI restriction sites. For protein production, the resulting plasmid (pET FGFR1 D1D2D3) was transformed into E. coli BL21(DE3) (Novagene). Cells were grown at 37° C. until the OD600 reached 0.6 and recombinant protein production was induced by adding 1 mM IPTG (isopropyl-b-D-thiogalactopyranoside). After 4 hours induction, cells were harvested and stored at −80° C. until usage. The cell pellet (1 L culture) was thawed and resuspended in 50 ml buffer 1 (20 mM Tris/HCl, pH 7.5, 200 mM NaCl) containing lysozyme (2 mg), and 40 U benzonase (Merck). […] Complex formation was analyzed by size exclusion chromatography and subsequent analysis on SDS-PAGE.
All STD- and 1D-NMR experiments were carried out on a BRUKER three-channel DRX600 and on a BRUKER four-channel DRX800 spectrometer at the standard temperature of 298 K and were referenced to the internal standard 3-Trimethyl-2,2,3,3-tetradeuteropropionate-sodium salt (TSP). […] For protein ligand 1D STD NMR measurements spectra were recorded with 1 mM ligand SSR128129E (100 mM DMSO stock solution) and […] protein with weak 2s RF irradiation on separated protein methyl resonances. […]

A further test has as its system B9-FGFR3TD cell line. As to the kind of experiment: B9 myeloma cell proliferation, FGFR3TD (K650E). Type of test: cell-based. The settings on record: constitutively activated FGFR3 K650E. On the procedure: as §1, §2

FGF2, sequence (P09038 142-288): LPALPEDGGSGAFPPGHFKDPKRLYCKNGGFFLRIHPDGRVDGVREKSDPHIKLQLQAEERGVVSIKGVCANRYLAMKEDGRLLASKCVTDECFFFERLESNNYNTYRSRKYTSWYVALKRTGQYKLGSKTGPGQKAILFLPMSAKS
T1 sequence (P22455 22-802): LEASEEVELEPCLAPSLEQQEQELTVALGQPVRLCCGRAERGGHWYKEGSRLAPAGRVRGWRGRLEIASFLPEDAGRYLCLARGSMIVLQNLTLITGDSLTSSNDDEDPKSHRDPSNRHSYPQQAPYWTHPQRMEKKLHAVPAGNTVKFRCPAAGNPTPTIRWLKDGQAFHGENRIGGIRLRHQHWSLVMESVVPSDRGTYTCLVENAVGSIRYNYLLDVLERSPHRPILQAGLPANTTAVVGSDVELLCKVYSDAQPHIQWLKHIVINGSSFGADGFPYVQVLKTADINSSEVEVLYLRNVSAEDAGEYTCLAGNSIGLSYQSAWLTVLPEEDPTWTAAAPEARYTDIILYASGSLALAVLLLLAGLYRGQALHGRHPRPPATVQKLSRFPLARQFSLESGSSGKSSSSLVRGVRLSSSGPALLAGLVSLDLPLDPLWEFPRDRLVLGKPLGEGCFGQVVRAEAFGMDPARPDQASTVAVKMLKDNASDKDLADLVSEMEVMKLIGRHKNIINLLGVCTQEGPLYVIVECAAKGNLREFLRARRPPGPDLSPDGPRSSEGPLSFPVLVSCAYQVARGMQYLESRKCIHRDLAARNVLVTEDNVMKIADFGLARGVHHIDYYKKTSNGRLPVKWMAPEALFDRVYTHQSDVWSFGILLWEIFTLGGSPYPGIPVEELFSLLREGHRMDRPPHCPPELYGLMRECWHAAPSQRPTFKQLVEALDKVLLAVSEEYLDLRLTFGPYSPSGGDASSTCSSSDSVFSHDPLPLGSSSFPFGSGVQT

Take `COc1c(C)c(C(=O)c2ccc(N)c(C(=O)[O-])c2)n2ccccc12.[Na+]` [SSR]: on FGFR4, the “competition with AlexaFluor488-labelled FGF2 binding to FGFR4” value is given as “not able to compete this binding”. Moreover, the “FGF1-induced proliferation of B9-FGFR3WT cells” value with B9-FGFR3WT cell line was “inhibited”. On FGF2, the “binding to FGF2” value is reported as “failed to bind”. In addition, the “proliferation of B9-FGFR3TD cells” value in the test on B9-FGFR3TD cell line was “insensitve”.
